This is an account of results in ChEMBL document CHEMBL1148458, “Incorporating molecular shape into the alignment-free Grid-Independent Descriptors” (J Med Chem, 2004).

In the first assay the target is T1, Adenosine receptor A1 (Homo sapiens, UniProt P30542).
T1 sequence (P30542 whole entry): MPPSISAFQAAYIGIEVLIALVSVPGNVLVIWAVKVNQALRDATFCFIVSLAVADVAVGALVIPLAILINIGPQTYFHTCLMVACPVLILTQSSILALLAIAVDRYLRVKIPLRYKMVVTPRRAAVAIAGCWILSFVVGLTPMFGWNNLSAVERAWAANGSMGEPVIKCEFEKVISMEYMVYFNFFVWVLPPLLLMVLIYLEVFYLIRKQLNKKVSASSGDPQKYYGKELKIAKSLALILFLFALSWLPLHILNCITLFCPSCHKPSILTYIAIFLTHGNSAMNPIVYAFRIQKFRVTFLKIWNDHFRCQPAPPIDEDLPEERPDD
Put plainly: Binding affinity at adenosine A1 receptor.
`CC1C(=O)c2nc(CCCN3N=C(c4ccccc4)CCC3=O)[nH]c2N(C)C1=O` (stereo not given): the Ki (usually the equilibrium dissociation constant of an inhibitor or competing ligand from its target) is 10800 nM.
On to `CCCC1C(=O)c2nc(CCN3N=C(Cl)CCC3=O)[nH]c2N(C)C1=O` (stereo not given), for which affinity was put at a Ki of 470 nM.
`CC1C(=O)c2nc(CCN3N=C(c4ccccc4)CCC3=O)[nH]c2N(C)C1=O` (stereo not given) showed a Ki of 6100 nM.
Turning to `CC1C(=O)c2nc(CCCN3N=C(Cl)CCC3=O)[nH]c2N(C)C1=O` (stereo not given), affinity was put at a Ki of 8800 nM.
For `CC1C(=O)c2nc(CCCCN3N=C(Cl)CCC3=O)[nH]c2N(C)C1=O` (stereo not given), the Ki was 370 nM.
For the compound `CCCC1C(=O)c2nc(CCCCN3N=C(c4ccccc4)CCC3=O)[nH]c2N(C)C1=O` (stereo not given), the Ki was determined as 380 nM.
As for `CCCC1C(=O)c2nc(CCCN3N=C(Cl)CCC3=O)[nH]c2N(C)C1=O` (stereo not given), the affinity corresponds to a Ki of 1200 nM.
The same measure, in the same setting: under `CCCC1C(=O)c2nc(CCN3N=C(c4ccccc4)CCC3=O)[nH]c2N(C)C1=O` (stereo not given) stands 760 nM; under `CC1C(=O)c2nc(CN3N=C(Cl)CCC3=O)[nH]c2N(C)C1=O` (stereo not given), above 100000 nM; under `CC1C(=O)c2nc(CCCN3N=CCCC3=O)[nH]c2N(C)C1=O` (stereo not given), 12700 nM.
In turn, `CCCC1C(=O)c2nc(CN3N=C(c4ccccc4)CCC3=O)[nH]c2N(C)C1=O` (stereo not given) yielded a Ki of 2270 nM.
With `CC1C(=O)c2nc(CCN3N=C(Cl)CCC3=O)[nH]c2N(C)C1=O` (stereo not given), affinity was put at a Ki of 14700 nM.
The compound `CCCC1C(=O)c2nc(CCCN3N=C(c4ccccc4)CCC3=O)[nH]c2N(C)C1=O` (stereo not given) came in with a Ki of 810 nM.
In turn, `CC1C(=O)c2nc(CCCCN3N=C(c4ccccc4)CCC3=O)[nH]c2N(C)C1=O` (stereo not given) displayed an inhibitory constant (Ki) of 2120 nM.
Consider `CCCC1C(=O)c2nc(CCCCN3N=C(Cl)CCC3=O)[nH]c2N(C)C1=O` (stereo not given), for which the Ki came out at 190 nM.
As for `CCCC1C(=O)c2nc(CN3N=C(Cl)CCC3=O)[nH]c2N(C)C1=O` (stereo not given), the Ki is 9200 nM.
Regarding `CC1C(=O)c2nc(CCN3N=CCCC3=O)[nH]c2N(C)C1=O` (stereo not given), the Ki was 12800 nM.
As for `CC1C(=O)c2nc(CN3N=C(c4ccccc4)CCC3=O)[nH]c2N(C)C1=O` (stereo not given), the inhibition constant (Ki) was determined as 53800 nM.

The target in a further assay is Plasmepsin II (Plasmodium falciparum, UniProt P46925). The experiment in a line: Binding affinity towards plasmepsin-2 in Plasmodium falciparum.
Plasmepsin II, sequence (P46925 whole entry): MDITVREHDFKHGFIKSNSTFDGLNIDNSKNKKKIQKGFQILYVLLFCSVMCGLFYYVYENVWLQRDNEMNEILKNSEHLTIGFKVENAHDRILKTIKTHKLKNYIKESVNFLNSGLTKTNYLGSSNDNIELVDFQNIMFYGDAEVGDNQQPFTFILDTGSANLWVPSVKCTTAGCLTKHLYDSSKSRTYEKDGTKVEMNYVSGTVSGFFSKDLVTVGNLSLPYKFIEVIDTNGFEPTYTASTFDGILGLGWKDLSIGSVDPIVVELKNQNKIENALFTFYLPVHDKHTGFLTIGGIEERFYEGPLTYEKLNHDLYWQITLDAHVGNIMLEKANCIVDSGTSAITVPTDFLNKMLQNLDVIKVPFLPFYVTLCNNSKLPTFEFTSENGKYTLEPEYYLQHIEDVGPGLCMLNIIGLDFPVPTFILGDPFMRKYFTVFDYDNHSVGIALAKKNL
Turning to `CCCCNC(=O)CC(O)C(Cc1ccccc1)NC(=O)C(NC(=O)COc1ccc2ccccc2c1)c1ccccc1` (stereo not given), the inhibition constant Ki is 5800 nM.
Same read-out and setting: under `CCC(C)C(NC(=O)CN1CCC(C(N)=O)(c2ccccc2)CC1)C(=O)NC(CC(C)C)C(O)CC(=O)NCCCc1ccccc1` (stereo not given) stands 600 nM.
`CCCCNC(=O)CC(O)C(Cc1ccccc1)NC(=O)C(CC(C)C)NC(=O)COc1ccc2ccccc2c1` (stereo not given) registered a Ki of 5600 nM.
Take `CCCCNC(=O)CC(O)C(Cc1ccccc1)NC(=O)C(Cc1ccccc1)NC(=O)COc1ccc2ccccc2c1` (stereo not given): the affinity, expressed as Ki, was 12000 nM.
For the compound `CCCCNC(=O)CC(O)C(CC(C)C)NC(=O)C(CCC(N)=O)NC(=O)COc1ccc2ccccc2c1` (stereo not given), the Ki is above 30000 nM.
Same read-out and setting: with `CCCCNC(=O)CC(O)C(Cc1ccccc1)NC(=O)C(NC(=O)Cc1ccc2ccccc2c1)C(C)CC` (stereo not given) the figure was 50 nM; with `CCCCNC(=O)CC(O)C(CC(C)C)NC(=O)C(NC(=O)CN1CCC(C(N)=O)(c2ccccc2)CC1)C(C)CC` (stereo not given), 410 nM.
`CCCCNC(=O)CC(O)C(CC(C)C)NC(=O)C(NC(=O)Cc1cc(OC)ccc1C)C(C)CC` (stereo not given): the Ki was 220 nM.
`CCCCNC(=O)CC(O)C(CC(C)C)NC(=O)C(NC(=O)Cc1cc(OC)ccc1C)C(C)C` (stereo not given) showed a Ki of 500 nM.
In the case of `CCCCNC(=O)CC(O)C(CC(C)C)NC(=O)C(NC(=O)Cc1ccc2ccccc2c1)C(C)CC` (stereo not given), the Ki came out at 90 nM.
Regarding `CCCCNC(=O)CC(O)C(CC(C)C)NC(=O)C(NC(=O)COc1ccc2ccccc2c1)c1ccccc1` (stereo not given), the Ki turned out to be 560 nM.
In turn, `CCCCNC(=O)CC(O)C(CC(C)C)NC(=O)C(NC(=O)Cc1cc(OC)ccc1C)c1ccccc1` (stereo not given) had a Ki of 590 nM.
On the same count and under the same terms, under `CCCCNC(=O)C[C@H](O)[C@H](Cc1ccccc1)NC(=O)[C@@H](NC(=O)COc1ccc2ccccc2c1)C(C)CC` (stereo not given in full) stands 110 nM.

For a further assay, the target named is Cathepsin D (Homo sapiens, UniProt P07339). The experiment in a line: Binding affinity towards human cathepsin D.
Cathepsin D, sequence (P07339 65-162 limits assumed): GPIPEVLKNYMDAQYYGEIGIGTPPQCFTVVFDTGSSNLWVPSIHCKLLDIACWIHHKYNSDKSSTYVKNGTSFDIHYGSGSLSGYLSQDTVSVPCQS
Cathepsin D, sequence (P07339 169-412 limits assumed): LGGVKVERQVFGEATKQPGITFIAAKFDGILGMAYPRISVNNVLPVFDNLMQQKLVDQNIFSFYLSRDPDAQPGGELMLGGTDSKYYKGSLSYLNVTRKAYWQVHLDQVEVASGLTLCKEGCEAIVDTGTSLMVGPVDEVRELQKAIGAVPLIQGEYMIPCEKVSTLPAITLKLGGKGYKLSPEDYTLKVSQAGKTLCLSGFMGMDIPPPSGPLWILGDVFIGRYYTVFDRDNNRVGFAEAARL
For `CCCCNC(=O)CC(O)C(Cc1ccccc1)NC(=O)C(NC(=O)COc1ccc2ccccc2c1)c1ccccc1` (stereo not given), the Ki turned out to be 110 nM.
In turn, `CCC(C)C(NC(=O)CN1CCC(C(N)=O)(c2ccccc2)CC1)C(=O)NC(CC(C)C)C(O)CC(=O)NCCCc1ccccc1` (stereo not given) showed a Ki of 3900 nM.
On the same count and under the same terms, under `CCCCNC(=O)CC(O)C(Cc1ccccc1)NC(=O)C(CC(C)C)NC(=O)COc1ccc2ccccc2c1` (stereo not given) stands 920 nM; under `CCCCNC(=O)CC(O)C(Cc1ccccc1)NC(=O)C(Cc1ccccc1)NC(=O)COc1ccc2ccccc2c1` (stereo not given), 1300 nM; under `CCCCNC(=O)CC(O)C(CC(C)C)NC(=O)C(CCC(N)=O)NC(=O)COc1ccc2ccccc2c1` (stereo not given), 200 nM.
In turn, `CCCCNC(=O)CC(O)C(Cc1ccccc1)NC(=O)[C@@H](NC(=O)c1ccc(CN2CCCC2)cc1)[C@@H](C)CC` (stereo not given in full) yielded a Ki of 1200 nM.
Compound `CCCCNC(=O)CC(O)C(Cc1ccccc1)NC(=O)C(NC(=O)Cc1ccc2ccccc2c1)C(C)CC` (stereo not given) returned a Ki of 320 nM.
With `CCCCNC(=O)CC(O)C(CC(C)C)NC(=O)C(NC(=O)CN1CCC(C(N)=O)(c2ccccc2)CC1)C(C)CC` (stereo not given), the affinity corresponds to a Ki of 5500 nM.
In the case of `CCCCNC(=O)CC(O)C(CC(C)C)NC(=O)C(NC(=O)Cc1cc(OC)ccc1C)C(C)CC` (stereo not given), affinity was put at a Ki of 2400 nM.
`CCCCNC(=O)CC(O)C(CC(C)C)NC(=O)C(NC(=O)Cc1cc(OC)ccc1C)C(C)C` (stereo not given) had a Ki of 1600 nM.
In turn, `CCCCNC(=O)CC(O)C(CC(C)C)NC(=O)C(NC(=O)Cc1ccc2ccccc2c1)C(C)CC` (stereo not given) had a Ki of 50 nM.
In the case of `CCCCNC(=O)CC(O)C(CC(C)C)NC(=O)C(NC(=O)COc1ccc2ccccc2c1)c1ccccc1` (stereo not given), the affinity, expressed as Ki, was 200 nM.
For the compound `CCCCNC(=O)CC(O)C(CC(C)C)NC(=O)C(NC(=O)Cc1cc(OC)ccc1C)c1ccccc1` (stereo not given), the Ki stood at 2100 nM.
In turn, `CCCCNC(=O)C[C@H](O)[C@H](Cc1ccccc1)NC(=O)[C@@H](NC(=O)COc1ccc2ccccc2c1)C(C)CC` (stereo not given in full) registered a Ki of 560 nM.
